Biological target: T1, PhXyl (extracellular β-xylosidase) (Pseudozyma hubeiensis, UniProt R9NZV8)
T1 construct: gene PHSY_001848; native extracellular enzyme purified from culture supernatant
T1 sequence (R9NZV8 24-873): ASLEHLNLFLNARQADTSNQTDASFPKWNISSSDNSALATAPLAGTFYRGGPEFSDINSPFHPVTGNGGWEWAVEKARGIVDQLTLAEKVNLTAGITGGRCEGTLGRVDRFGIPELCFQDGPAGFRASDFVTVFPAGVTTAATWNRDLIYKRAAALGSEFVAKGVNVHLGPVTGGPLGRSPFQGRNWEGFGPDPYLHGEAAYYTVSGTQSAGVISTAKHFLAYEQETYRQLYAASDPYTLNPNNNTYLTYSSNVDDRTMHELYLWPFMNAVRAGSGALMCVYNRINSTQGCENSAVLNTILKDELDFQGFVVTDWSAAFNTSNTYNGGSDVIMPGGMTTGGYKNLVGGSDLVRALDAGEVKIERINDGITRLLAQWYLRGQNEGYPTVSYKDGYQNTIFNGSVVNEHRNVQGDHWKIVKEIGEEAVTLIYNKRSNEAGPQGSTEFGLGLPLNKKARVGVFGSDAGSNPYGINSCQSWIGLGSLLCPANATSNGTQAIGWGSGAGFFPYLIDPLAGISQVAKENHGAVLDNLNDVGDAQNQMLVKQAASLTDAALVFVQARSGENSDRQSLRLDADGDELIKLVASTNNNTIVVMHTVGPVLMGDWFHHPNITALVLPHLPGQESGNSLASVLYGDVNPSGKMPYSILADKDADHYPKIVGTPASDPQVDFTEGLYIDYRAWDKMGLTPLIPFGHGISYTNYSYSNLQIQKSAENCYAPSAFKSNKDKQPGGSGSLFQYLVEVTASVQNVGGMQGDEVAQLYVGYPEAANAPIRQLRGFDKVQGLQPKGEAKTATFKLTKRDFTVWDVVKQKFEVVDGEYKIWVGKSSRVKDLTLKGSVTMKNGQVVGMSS
Test: inhibition of pNPX hydrolysis
Assay type: biochemical
Details: read-out: % activity at 75 mM

activity at 75000 µM: 50%
Structure (SMILES): OC1OC[C@@H](O)[C@H](O)[C@H]1O (stereo partly shown) [xylose]

From PMC5023640, “Purification and characterization of an extracellular β-xylosidase from Pseudozyma hubeiensis NCIM 3574 (PhXyl), an unexplored yeast” (AMB Express, 2016)
